Experimental data as given in patent publication US11312719B2, “9-substituted amino triazolo quinazoline derivatives as adenosine receptor antagonists, pharmaceutical compositions and their use” (Merck Sharp & Dohme Corp., priority 2018, dated 2022).

Key:
[1] = biological target: human A2b adenosine receptor (Homo sapiens (Human), UniProt P29275); assay: A2b radioligand filtration binding assay; conditions: for IC50: membranes from HEK293 cells expressing human A2b receptor
Procedure, shortened: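 Displacement of a tritiated A2b antagonist (working solution 14 nM) from human A2b receptor membranes of recombinant HEK293 cells, in Mg/Ca-free PBS pH 7.4, 60 min at room temperature after 15 to 30 min compound preincubation. Filtered, counted; normalized to total and 20 μM NECA non-specific binding; IC50 from logistic fit.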

[2] = biological target: human A2a adenosine receptor (Homo sapiens (Human), UniProt P29274); assay: A2a receptor affinity radioligand binding assay ([3H] SCH58261); conditions: membranes from HEK293 or CHO cells expressing human A2a receptor
Procedure, shortened: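 IC50 values come from 4-parameter logistic fits of filter-bound radioactivity, normalized to total (1% DMSO) and nonspecific (1 μM ZM241385) binding. Recombinant human A2a membranes (HEK293 or CHO) were exposed to compound for 15–30 min, then to [3H]SCH58261 (4 nM working dilution) for 60 min at room temperature in Tris pH 7.4/MgCl2/Tween20 buffer.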

Sequence of human A2b adenosine receptor (P29275 whole entry): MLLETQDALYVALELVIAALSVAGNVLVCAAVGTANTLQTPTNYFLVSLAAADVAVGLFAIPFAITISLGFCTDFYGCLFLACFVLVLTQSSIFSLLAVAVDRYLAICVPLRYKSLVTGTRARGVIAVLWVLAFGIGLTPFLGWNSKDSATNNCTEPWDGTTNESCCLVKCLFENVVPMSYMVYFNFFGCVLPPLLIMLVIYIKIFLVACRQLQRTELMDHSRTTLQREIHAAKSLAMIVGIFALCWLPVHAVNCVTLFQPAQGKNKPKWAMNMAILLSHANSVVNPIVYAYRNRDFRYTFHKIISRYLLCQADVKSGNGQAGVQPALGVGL
Sequence of human A2a adenosine receptor (P29274 whole entry): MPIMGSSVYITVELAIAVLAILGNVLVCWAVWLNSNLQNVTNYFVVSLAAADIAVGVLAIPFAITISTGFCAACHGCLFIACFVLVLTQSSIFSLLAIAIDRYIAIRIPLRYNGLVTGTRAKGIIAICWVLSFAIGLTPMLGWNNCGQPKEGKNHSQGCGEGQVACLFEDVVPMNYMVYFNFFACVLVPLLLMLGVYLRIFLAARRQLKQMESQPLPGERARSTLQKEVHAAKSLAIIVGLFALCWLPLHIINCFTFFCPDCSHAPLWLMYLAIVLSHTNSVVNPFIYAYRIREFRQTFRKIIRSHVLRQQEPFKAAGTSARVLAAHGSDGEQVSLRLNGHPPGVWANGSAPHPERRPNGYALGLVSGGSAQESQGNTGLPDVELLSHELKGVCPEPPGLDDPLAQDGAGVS

IC50 [1] | IC50 [2] | A2B binding % Inh. @ 10000 nM ([1]; @ 10000 nM) | SMILES
3010 nM | 18.3 nM | – | COc1cc2nc(N)n3nc(C4CCC(C)N(c5cnn(CC(C)(C)O)c5C)C4)nc3c2cc1F [Example 52, 1-(4-((2R,5S, or 2S,5R)-5-(5-amino-9-fluoro-8-methoxy-[1,2,4]triazolo[1,5-c]quinazolin-2-yl)-2-methylpiperidin-1-yl)-5-methyl-1H-pyrazol-1-yl)-2-methylpropan-2-ol]
2900 nM | 50.6 nM | – | COc1cc(F)cc2c1nc(N)n1nc([C@@H]3CC[C@@H](C)N(c4cn(CC(C)(C)O)nc4C)C3)nc21 (single isomer, unassigned) [Example 114, 1-(4-((2R or 2S,5R or 5S)-5-(5-amino-9-fluoro-7-methoxy-[1,2,4]triazolo[1,5-c]quinazolin-2-yl)-2-methylpiperidin-1-yl)-3-methyl-1H-pyrazol-1-yl)-2-methylpropan-2-ol]
– | 181 nM | 31% Inh. | COc1cc(F)cc2c1nc(N)n1nc([C@@H]3C[C@H](F)CN(c4cnn(CC(C)(C)O)c4)C3)nc21 (single isomer, unassigned) [Example 68, 1-(4-((3R,5S or 3S,5R)-3-(5-amino-9-fluoro-7-methoxy-[1,2,4]triazolo[1,5-c]quinazolin-2-yl)-5-fluoropiperidin-1-yl)-1H-pyrazol-1-yl)-2-methylpropan-2-ol]
108 nM | 0.4 nM | – | COc1cc(F)cc2c1nc(N)n1nc(C3CC(F)CN(c4cn(CC(C)(C)O)nc4C)C3)nc21 (single isomer, unassigned) [Example 77, 1-(4-((3S,5S or 3R,5R)-3-(5-amino-9-fluoro-7-methoxy-[1,2,4]triazolo[1,5-c]quinazolin-2-yl)-5-fluoropiperidin-1-yl)-3-methyl-1H-pyrazol-1-yl)-2-methylpropan-2-ol]
1.6 nM | 3.3 nM | – | COc1cc2nc(N)n3nc([C@@H]4CCCN(c5cnn(CC(F)(F)F)c5)C4)nc3c2cc1F [Example 5, (R)-9-fluoro-8-methoxy-2-(1-(1-(2,2,2-trifluoroethyl)-1H-pyrazol-4-yl)piperidin-3-yl)[1,2,4]triazolo[1,5-c]quinazolin-5-amine]
786 nM | 0.6 nM | – | COc1cc(F)cc2c1nc(N)n1nc(C3CC(F)CN(c4cn(CC(C)(C)O)nc4C)C3)nc21 (single isomer, unassigned) [Example 70, 1-(4-((3R,5S or 3S,5R)-3-(5-amino-9-fluoro-7-methoxy-[1,2,4]triazolo[1,5-c]quinazolin-2-yl)-5-fluoropiperidin-1-yl)-3-methyl-1H-pyrazol-1-yl)-2-methylpropan-2-ol]
390 nM | 32.7 nM | – | Cn1cc(N2CCCC(c3nc4c5cc(F)c(F)cc5nc(N)n4n3)C2)cn1 (single isomer, unassigned) [Example 101, (R or S)-8,9-difluoro-2-(1-(1-methyl-1H-pyrazol-4-yl)piperidin-3-yl)-[1,2,4]triazolo[1,5-c]quinazolin-5-amine]
554 nM | 7.5 nM | – | COc1cc2nc(N)n3nc([C@@H]4CCCN(c5ncn(CC(C)(C)O)n5)C4)nc3c2cc1F [Example 1, (R)-1-(3-(3-(5-amino-9-fluoro-8-methoxy-[1,2,4]triazolo[1,5-c]quinazolin-2-yl)piperidin-1-yl)-1H-1,2,4-triazol-1-yl)-2-methylpropan-2-ol]
434 nM | 1.7 nM | – | COc1cc2nc(N)n3nc([C@@H]4CCCN(c5cn(C6CCOCC6)nc5C)C4)nc3c2cc1F [Example 17, (R)-9-fluoro-8-methoxy-2-(1-(3-methyl-1-(tetrahydro-2H-pyran-4-yl)-1H-pyrazol-4-yl)piperidin-3-yl) [1,2,4]triazolo[1,5-c]quinazolin-5-amine]
2060 nM | 369 nM | – | COc1cc(F)cc2c1nc(N)n1nc(C3CCC(C)N(c4cnn(C(C)(C)CO)c4)C3)nc21 (single isomer, unassigned) [Example 122, 2-(4-((2R or 2S,5R or 5S)-5-(5-amino-9-fluoro-7-methoxy-[1,2,4]triazolo[1,5-c]quinazolin-2-yl)-2-methylpiperidin-1-yl)-1H-pyrazol-1-yl)-2-methylpropan-1-ol]
104 nM | 3.7 nM | – | COc1cc2nc(N)n3nc([C@@H]4CCCN(c5cnn(CC(C)(C)O)c5)C4)nc3c2cc1F [Example 7, (R)-1-(4-(3-(5-amino-9-fluoro-8-methoxy-[1,2,4]triazolo[1,5-c]quinazolin-2-yl)piperidin-l-yl)-1H-pyrazol-1-yl)-2-methylpropan-2-ol]
20.4 nM | 1.3 nM | – | COc1cc2nc(N)n3nc(C4CCC(C)N(c5cnn(C6CCOCC6)c5)C4)nc3c2cc1F (single isomer, unassigned) [Example 44, 9-fluoro-8-methoxy-2-((3R,6S or 3S,6R)-6-methyl-1-(1-(tetrahydro-2H-pyran-4-yl)-1H-pyrazol-4-yl)piperidin-3-yl)-[1,2,4]triazolo[1,5-c]quinazolin-5-amine]
243 nM | 6.7 nM | – | COc1cc2nc(N)n3nc([C@@H]4CCCN(c5cn(CS(C)(=O)=O)nc5C(F)F)C4)nc3c2cc1F [Example 132, (R)-2-(1-(3-(difluoromethyl)-1-((methylsulfonyl)methyl)-pyrazol-4-yl)piperidin-3-yl)-9-fluoro-8-methoxy-[1,2,4]triazolo[1,5-c]quinazolin-5-amine]
404 nM | 11.6 nM | – | COc1cc2nc(N)n3nc([C@@H]4C[C@@H](F)CN(c5cnn(CC(C)(C)O)c5)C4)nc3c2cc1F (single isomer, unassigned) [Example 80, 1-(4-((3R,5R or 3S,5S)-3-(5-amino-9-fluoro-8-methoxy-[1,2,4]triazolo[1,5-c]quinazolin-2-yl)-5-fluoropiperidin-1-yl)-1H-pyrazol-1-yl)-2-methylpropan-2-ol]
16.5 nM | 0.7 nM | – | C[C@H]1CC[C@@H](c2nc3c4cc(F)cc(F)c4nc(N)n3n2)CN1c1cnn(CC(C)(C)O)c1 [Example 111, 1-(4-((2S,5R)-5-(5-amino-7,9-difluoro-[1,2,4]triazolo[1,5-c]quinazolin-2-yl)-2-methylpiperidin-1-yl)-1H-pyrazol-1-yl)-2-methylpropan-2-ol]
2430 nM | 242 nM | – | COc1cc2nc(N)n3nc(C4(F)CCN(c5cnn(CC(C)(C)O)c5)C4)nc3c2cc1F (single isomer, unassigned) [Example 63, (S or R)-1-(4-(3-(5-amino-9-fluoro-8-methoxy-[1,2,4]triazolo[1,5-c]quinazolin-2-yl)-3-fluoropyrrolidin-1-yl)-1H-pyrazol-1-yl)-2-methylpropan-2-ol]
134 nM | 0.4 nM | – | COc1cc(F)cc2c1nc(N)n1nc([C@@H]3CCCN(c4cn(C(C)C(C)(C)O)nc4C)C3)nc21 (single isomer, unassigned) [Example 87, (R or S)-3-(4-((R)-3-(5-amino-9-fluoro-7-methoxy-[1,2,4]triazolo[1,5-c]quinazolin-2-yl)piperidin-1-yl)-3-methyl-1H-pyrazol-1-yl)-2-methylbutan-2-ol]
766 nM | 17.7 nM | – | COc1cc(Cl)cc2c1nc(N)n1nc(C3CCCN(c4cnn(C)c4)C3)nc21 (single isomer, unassigned) [Example 104, (R or S)-9-chloro-7-methoxy-2-(1-(1-methyl-1H-pyrazol-4-yl)piperidin-3-yl)-[1,2,4]triazolo[1,5-c]quinazolin-5-amine]
561 nM | 2.6 nM | – | COc1cc(F)cc2c1nc(N)n1nc([C@H]3C[C@@H](F)CN(c4cnn(CC(C)(C)O)c4)C3)nc21 (single isomer, unassigned) [Example 69, 1-(4-((3S,5R or 3R,5S)-3-(5-amino-9-fluoro-7-methoxy-[1,2,4]triazolo[1,5-c]quinazolin-2-yl)-5-fluoropiperidin-1-yl)-1H-pyrazol-1-yl)-2-methylpropan-2-ol]
42.8 nM | 1.2 nM | – | COc1cc2nc(N)n3nc(C4CCC(C)N(c5cnn(CC(C)(C)O)c5C)C4)nc3c2cc1F (single isomer, unassigned) [Example 41, 1-(4-((2S,5R or 2R,5S)-5-(5-amino-9-fluoro-8-methoxy-[1,2,4]triazolo[1,5-c]quinazolin-2-yl)-2-methylpiperidin-1-yl)-5-methyl-1H-pyrazol-1-yl)-2-methylpropan-2-ol]
7.9 nM | 0.4 nM | – | Cc1cc2nc(N)n3nc([C@@H]4CC[C@H](C)N(c5cnn(CC(C)(C)O)c5)C4)nc3c2cc1F [Example 112, 1-(4-((2S,5R)-5-(5-amino-9-fluoro-8-methyl-[1,2,4]triazolo [1,5-c]quinazolin-2-yl)-2-methylpiperidin-1-yl)-1H-pyrazol-1-yl)-2-methylpropan-2-ol]
15.9 nM | 2 nM | – | COc1cc2nc(N)n3nc([C@@H]4CCCN(c5ccc(OC(C)C)nc5)C4)nc3c2cc1F [Example 23, (R)-9-fluoro-2-(1-(6-isopropoxypyridin-3-yl)piperidin-3-yl)-8-methoxy-[1,2,4]triazolo[1,5-c]quinazolin-5-amine]
895 nM | 2.9 nM | – | COc1cc(F)cc2c1nc(N)n1nc([C@@H]3CC[C@H](C)N(c4cn(CC(C)(C)O)nc4C)C3)nc21 (single isomer, unassigned) [Example 115, 1-(4-((2S or 2R,5R or 5S)-5-(5-amino-9-fluoro-7-methoxy-[1,2,4]triazolo[1,5-c]quinazolin-2-yl)-2-methylpiperidin-1-yl)-3-methyl-1H-pyrazol-1-yl)-2-methylpropan-2-ol]
